Measurements: patent US10633337B2, “Crystal forms of a 9-aminomethyl substituted tetracycline compound and a preparation method thereof” (KBP Biosciences Co., Ltd., priority 2016, dated 2020)

Legend:
Assay type in all cases: physicochemical
[1] = Assay 1: stability (influencing factor tests: high temperature, high humidity, illumination) of amorphous form and crystal forms I, II, VII; content and purity by HPLC; conditions: for stability (conclusion in words): high temperature, high humidity and illumination
Method: Assay 1: Stability for Amorphous Form and Crystal Forms of the Present Compound
Tested sample: amorphous form, crystal form I, crystal form II, and crystal form VII of the compound represented by formula (1) were prepared according to Examples;
(§1) Test Conditions for Investigating the Influencing Factors:
(§2) High temperature tests: amorphous form, crystal form I, crystal form II, and crystal form VII of the compound represented by formula (1) were laid on a dry and clean watch glass, and kept at 60° C.±5° C. for 14 days. Samples were taken respectively on Day 7 and Day 14. The content and the purity of the compound represented by formula (1) were measured, and compared with those of the sample taken on Day 0.
as §2, with “humidity test:” for “temperature tests:”, “25° C.±2° C., RH75%±5%, 40° C.±2° C., RH75%±5%” for “60° C.±5° C.”
as §2, with “Illumination test:” for “High temperature tests:”, “an illuminance of 4500 Lx±500 Lx in an illumination box” for “60° C.±5° C.”
(§3) Content: it was measured by using an external standard method in accordance with the High Performance Liquid Chromatography in Chinese Pharmacopoeia, Appendix V D, Edition 2010.
(§4) Purity: it was measured by using an area normalization method in accordance with the High Performance Liquid Chromatography in Chinese Pharmacopoeia, Appendix V D, Edition 2010.

[2] = Assay 2: stability (influencing factor tests) of crystal form II and crystal form IV; content by HPLC; conditions: for stability (conclusion in words): high temperature, high humidity and illumination
Method: Assay 2: Stability for Crystal Form II and Crystal Form IV of the Present Compound
Tested sample: crystal form II and crystal form IV of the compound represented by formula (1) were prepared according to Examples;
as §1
as §2, with “tests:” for “tests: amorphous form,”, “II” for “I, crystal form II,”, “IV” for “VII”, “15” for “14”, “5” for “7”, “15.” for “14.”
(§5) High humidity test: crystal form II and crystal form IV of the compound represented by formula (1) were laid on a dry and clean watch glass, and kept at 25° C.±2° C., RH92.5%±5%, 25° C.±2° C., RH75%±5%, 40° C.±2° C., RH75%±5% for 15 days. Samples were taken respectively on Day 5 and Day 15. The content and the purity of the compound represented by formula (1) were measured, and compared with those of the sample taken on Day 0.
as §5, with “Illumination” for “High humidity”, “an illuminance of 4500 Lx±500 Lx in an illumination box” for “25° C.±2° C., RH92.5%±5%, 25° C.±2° C., RH75%±5%, 40° C.±2° C., RH75%±5%”
as §3, §4

[3] = Investigation of the stability of crystal form III at high humidity
Method: It is also found in the study that not all of crystal forms I, II, III, IV, V, VI, VII and VIII of the compound represented by formula (1) have better stability than the amorphous form. Specifically, in the investigation of the stability of crystal form III, the content of the compound is reduced by about 10% after being placed in a high humidity condition of 40° C./75%±5% RH for 14 days.
The data for investigating the stability was mentioned as above.

[4] = Day 0 (start of stability test)
[5] = High temperature 60° C., Day 14
[6] = Illumination 45001x ± 5001x, Day 14

SMILES	Content ([1]; 25° C./75% ± 5% RH, Day 7)	Purity ([1]; 25° C./75% ± 5% RH, Day 7)	Content ([1]; 25° C./75% ± 5% RH, Day 14)	Purity ([1]; 25° C./75% ± 5% RH, Day 14)	Content ([1]; 40° C./75% ± 5% RH, Day 7)	Purity ([1]; 40° C./75% ± 5% RH, Day 7)	Content ([1]; 40° C./75% ± 5% RH, Day 14)	Purity ([1]; 40° C./75% ± 5% RH, Day 14)	Content [1, 4]	Purity [1, 4]	Content ([1]; High temperature 60° C., Day 7)	Purity ([1]; High temperature 60° C., Day 7)	Content [1, 5]	Purity [1, 5]	Content [1, 6]	Purity [1, 6]	stability (conclusion in words) [1]	Content ([2]; 25° C./RH 75% ± 5%, Day 15)	Content ([2]; 25° C./RH 92.5% ± 5%, Day 15)	Content ([2]; 40° C./RH 75% ± 5%, Day 15)	other results
CN(C)c1cc(CN2CC3CC3C2)c(O)c2c1C[C@H]1C[C@H]3[C@H](N(C)C)C(O)=C(C(N)=O)C(=O)[C@@]3(O)C(O)=C1C2=O (single isomer, unassigned) [Crystal form II]	95.9%	96.3%	96.1%	96.2%	96.5%	96.2%	96.1%	96.1%	94.5%	96.4%	95.8%	96.1%	96.0%	96.0%	96.1%	96.2%	relatively high stability	98.3%	96.7%	98.0%	Content ([2]; 60° C., Day 15): 97.0%; Content ([2]; 4500 Lx ± 500 Lx, Day 15): 97.8%; Content [2, 4]: 98.4%; stability (conclusion in words) [2]: higher stability than crystal form IV
CN(C)c1cc(CN2CC3CC3C2)c(O)c2c1C[C@H]1C[C@H]3[C@H](N(C)C)C(O)=C(C(N)=O)C(=O)[C@@]3(O)C(O)=C1C2=O (single isomer, unassigned) [Crystal form IV]	–	–	–	–	–	–	–	–	–	–	–	–	–	–	–	–	–	93.1%	90.3%	74.6%	Content ([2]; 60° C., Day 15): 88.6%; Content ([2]; 4500 Lx ± 500 Lx, Day 15): 74.6%; Content [2, 4]: 97.0%; reduction of content ([2]; high temperature of 60° C. for 15 days): about 10%; stability (conclusion in words) [2]: changed very much; reduction of content ([2]; illumination 4500 Lx±500 Lx for 15 days): 23.1%; stability compared with amorphous form ([2]; illumination condition or high temperature condition): worse stability than the amorphous form
CN(C)c1cc(CN2CC3CC3C2)c(O)c2c1C[C@H]1C[C@H]3[C@H](N(C)C)C(O)=C(C(N)=O)C(=O)[C@@]3(O)C(O)=C1C2=O (stereo partly drawn) [Amorphous form, (4S,4aS,5aR,12aS)-9-(3-azabicyclo[3.1.0]hexan-3-ylmethyl)-4,7-bis(dimethylamino)-3,10,12,12a-tetrahydroxy-1,11-dioxo-1,4,4a,5,5a,6,11,12a-octahydrotetracene-2-carboxamide]	98.7%	97.1%	93.3%	96.7%	94.7%	94.9%	89.6%	92.9%	97.1%	98.0%	94.5%	95.8%	90.5%	94.3%	85.0%	92.9%	unstable	–	–	–	reduction of content ([1]; after 14 days at a high temperature of 60° C.): 6.6%; reduction of content ([1]; after 14 days at high humidity 40° C./75%±5% RH): 7.5%; reduction of content ([1]; after 14 days under illumination of 4500 lx±500 lx): 12.1%
CN(C)c1cc(CN2CC3CC3C2)c(O)c2c1C[C@H]1C[C@H]3[C@H](N(C)C)C(O)=C(C(N)=O)C(=O)[C@@]3(O)C(O)=C1C2=O (stereo partly drawn) [Crystal form I, (4S,4aS,5aR,12aS)-9-(3-azabicyclo[3.1.0]hexan-3-ylmethyl)-4,7-bis(dimethylamino)-3,10,12,12a-tetrahydroxy-1,11-dioxo-1,4,4a,5,5a,6,11,12a-octahydrotetracene-2-carboxamide]	97.2%	98.1%	98.2%	98.1%	97.4%	98.0%	97.5%	97.8%	97.0%	98.2%	97.7%	97.9%	97.3%	97.7%	97.8%	98.1%	relatively high stability	–	–	–	–
CN(C)c1cc(CN2CC3CC3C2)c(O)c2c1C[C@H]1C[C@H]3[C@H](N(C)C)C(O)=C(C(N)=O)C(=O)[C@@]3(O)C(O)=C1C2=O (stereo partly drawn) [Crystal form III, (4S,4aS,5aR,12aS)-9-(3-azabicyclo[3.1.0]hexan-3-ylmethyl)-4,7-bis(dimethylamino)-3,10,12,12a-tetrahydroxy-1,11-dioxo-1,4,4a,5,5a,6,11,12a-octahydrotetracene-2-carboxamide]	–	–	–	–	–	–	–	–	–	–	–	–	–	–	–	–	–	–	–	–	reduction of content ([3]; high humidity 40° C./75%±5% RH for 14 days): about 10%; stability compared with amorphous form ([3]; high humidity condition): worse stability than the amorphous form
CN(C)c1cc(CN2CC3CC3C2)c(O)c2c1C[C@H]1C[C@H]3[C@H](N(C)C)C(O)=C(C(N)=O)C(=O)[C@@]3(O)C(O)=C1C2=O (stereo partly drawn) [Crystal form VII, (4S,4aS,5aR,12aS)-9-(3-azabicyclo[3.1.0]hexan-3-ylmethyl)-4,7-bis(dimethylamino)-3,10,12,12a-tetrahydroxy-1,11-dioxo-1,4,4a,5,5a,6,11,12a-octahydrotetracene-2-carboxamide]	96.1%	97.1%	95.8%	97.2%	94.6%	96.4%	94.5%	95.7%	95.8%	97.4%	95.2%	96.8%	93.6%	96.2%	95.7%	96.6%	relatively high stability	–	–	–	–
